Here are results for 86 molecules from ChEMBL document CHEMBL1157539, “Thousands of chemical starting points for antimalarial lead identification” (Nature, 2010).

SMILES strings stand for the structures.

The experiment concerns Plasmodium falciparum. In words: GSK_TCMDC: Inhibition of Plasmodium falciparum 3D7 in whole erythrocytes, using parasite LDH activity as an index of growth. It counts as functional, organism-based. The settings on record: Plasmodium falciparum, 3D7.
`O=C(/C=N/O)Nc1ccccc1[N+](=O)[O-]` showed an XC50 of 0.785 µM.

Molecule `Cc1[nH]c(C)c(-c2ccc(Oc3cccc(C(F)(F)F)c3)cc2)c(=O)c1Br` displayed an XC50 of 0.00769 µM.

For `COc1cccc(CNC(=O)c2ccnc(-c3ccc(CNCCOc4ccccc4)cc3)c2)c1`, the XC50 came to 1.2 µM.

As for `CC(C)CCC[C@@H]([C@@H](CC1CCCCC1)C(=O)N[C@@H](CCCCNC(=O)OCc1ccccc1)C(=O)Nc1nccs1)N(O)C=O`, the XC50 was 0.457 µM.

`CC(C)N1CCC(NC(=O)N2CCCN(c3ncnc4cc(-c5ccccc5)sc34)CC2)CC1` had an XC50 of 0.861 µM.

For the molecule `Clc1cc(Nc2ncnc3sc(C#Cc4ncc[nH]4)cc23)ccc1OCc1ccccn1`, the XC50 was 1.11 µM.

For `CN(C)C(CNc1ncnc2cc(Cl)ccc12)Cc1ccccc1` (stereo unspecified), the XC50 was 0.872 µM.

The molecule `O=S(=O)(Nc1cc2c(cc1OCc1ccccc1)CCN(C1CCC1)CC2)c1ccc(-c2ccc(Cl)cc2)cc1` yielded an XC50 of 1.14 µM.

Consider `CCCCC(N)COc1cccc2c(-c3ccncc3)c(-c3cccc(NC(=O)Nc4ccccc4)c3)nn12` (stereo unspecified), for which the XC50 stood at 0.878 µM.

Regarding `COc1cccc(CN2CCCC(OC(c3ccccc3)c3ccccc3)C2)c1O` (stereo unspecified), the XC50 was 0.93 µM.

Molecule `CC(C)n1cc2c(ccc3nc(N)nc(N)c32)n1` displayed an XC50 of 0.0369 µM.

Take `CCN(C1CCCCC1)S(=O)(=O)c1ccc(OC)c(N2CCN(C(=O)C(Cl)(Cl)Cl)CC2)c1`: the XC50 stood at 0.635 µM.

Turning to `c1ccc2nc(NCCCCCCCCNc3ccc4ccccc4n3)ccc2c1`, the XC50 is 0.272 µM.

As to `COc1ccc(CC(=O)Nc2ccc(-c3cccc(-c4nc5cccc(C)c5[nH]4)c3)cc2)cc1O`, the XC50 was 0.452 µM.

`Cc1cccc(NC(=O)N(Cc2cc3cc(C)cc(C)c3[nH]c2=O)C2CC2)c1` registered an XC50 of 0.336 µM.

`CNC(=O)C(C)N(c1ccc(Cl)cc1)c1nc(C(C)(C)C)cs1` (stereo unspecified) registered an XC50 of 0.741 µM.

The molecule `CCC[C@@H](C(=O)NCCc1cccc(OC)c1)N1C(=O)c2c(ccc(OC)c2OC)C1C(=O)Nc1c(C)cccc1C` (stereo partly specified) returned an XC50 of 0.808 µM.

Molecule `O=C(Cc1c[nH]cn1)Nc1cccc(-c2cccc(-c3nc4cc(C(F)(F)F)ccc4[nH]3)c2)c1` gave an XC50 of 0.225 µM.

`O=C(Cc1ccccc1)NC(CCN1CCC(O)(c2cccc(C(F)(F)F)c2)CC1)c1ccc(Cl)c(Cl)c1` (stereo unspecified): the XC50 turned out to be 0.855 µM.

As to `COc1ccc(CN(C)CCCOc2ccc(NC(=O)c3cccc4c(=O)c5cccc(C)c5[nH]c34)cc2)cc1OC`, the XC50 came to 0.889 µM.

For `CC(C)(C)c1ccc(OCCCON2C(=N)N=C(N)NC2(C)C)c(C(C)(C)C)c1`, the XC50 worked out at 0.0032 µM.

Take `CC(C)(C)c1ccc(NC(=O)c2cccc(CN3CCCN(Cc4ccc(F)cc4)CC3)c2)cc1`: the XC50 was 0.989 µM.

Take `Cc1nnsc1C(=O)Nc1cccc(-c2ccc(-c3nc4cccc(C)c4[nH]3)s2)c1`: the XC50 was 1.12 µM.

Molecule `Cc1cc(N2CCNCC2)c2cc(NC(=O)Nc3ccc(Cl)c(Cl)c3)ccc2n1` came in with an XC50 of 0.313 µM.

In turn, `Cc1nc(C)c(-c2ccc(Oc3cccc(OC(F)(F)F)c3)cc2)c(O)c1Br` had an XC50 of 0.0171 µM.

In turn, `Cc1cc(N(C)C)nc(Nc2ccc(NC(=O)CCc3ccccc3)cc2)n1` had an XC50 of 0.851 µM.

As for `O=C(Nc1ccc([N+](=O)[O-])cc1O)Nc1ccccc1Oc1ccccc1`, the XC50 came out at 0.925 µM.

With `O=C(NCC1CCC(C(=O)O)CC1)c1ccc(/C=C/C(=O)N2CCc3ccccc3C2c2ccc3c(c2)OCO3)cc1` (stereo unspecified), the XC50 was 0.892 µM.

Consider `COc1cc(NC(=O)/C=C/c2cc(F)cc(F)c2F)cc(OCCN2CCC(O)(c3ccccc3)CC2)c1`, for which the XC50 stood at 0.166 µM.

`O=C(/C=C/c1ccsc1)N1CCC(CCN2CCC(c3c[nH]c4ccccc34)CC2)CC1` displayed an XC50 of 0.905 µM.

As for `FC(F)(F)c1ccc2[nH]c(-c3ccc(-c4ccc(CN5CCN(c6ccncc6)CC5)cc4)cc3)nc2c1`, the XC50 was 0.0624 µM.

The molecule `FC(F)(F)c1ccc2c(NN=Cc3cccc(Cl)c3)ccnc2c1` came in with an XC50 of 0.838 µM.

As for `CCCC(C)Nc1nc(C)cc(N[C@@H](CC(C)C)C(=O)NC2CCCC2)n1` (stereo partly specified), the XC50 was determined as 1.08 µM.

`N#Cc1ccc2c(c1)CCN(CCC1CCC(NC(=O)c3cccc(-c4ccc(F)cc4)c3)CC1)CC2` (stereo unspecified) registered an XC50 of 0.822 µM.

Turning to `O=C(NCC1CCC(C(=O)NC2CCCc3ccccc32)CC1)c1ccc(O)c(-c2ccc(Cl)c(Cl)c2)c1` (stereo unspecified), the XC50 amounted to 1.02 µM.

In turn, `N=C(N)NN=Cc1cc([N+](=O)[O-])ccc1Sc1ccccc1CO` registered an XC50 of 1.46 µM.

On to `COc1ccc(F)cc1-c1ccccc1CNC(=O)CN(C)S(=O)(=O)c1cc(C)cc(Cl)c1C`, for which the XC50 is 0.665 µM.

Molecule `CC(C)(C)COc1ccc2c(N)n[nH]c2c1` returned an XC50 of 0.789 µM.

Consider `CC(C)(C)OC(=O)/C=C(\C(=O)OCc1ccc([N+](=O)[O-])cc1)c1csc(NC(c2ccccc2)(c2ccccc2)c2ccccc2)n1`, for which the XC50 is 0.861 µM.

The molecule `CC1CN(c2ccnc3ccc(Sc4ccc(Oc5ccccc5)cc4)cc23)CC(C)N1` (stereo unspecified) had an XC50 of 0.785 µM.

Regarding `Cc1cc(=NN=Cc2ccccc2F)c2cc(C(F)(F)F)ccc2[nH]1`, the XC50 was 0.433 µM.

`O=C(c1ccccc1NN=C1C(=O)N(c2ccccc2)N=C1c1ccccc1)N1CCOCC1` displayed an XC50 of 0.351 µM.

As for `COc1ccc(CCNCc2ccc3c(C)cc(N)nc3c2)cc1`, the XC50 was 0.568 µM.

In turn, `CCOC(=O)c1c(NC(=O)c2ccccc2)sc2c(O)c(CNC3CCCCC3)ccc12` yielded an XC50 of 0.752 µM.

`Cc1[nH]c(C)c(-c2ccc(Oc3ccc(Cl)cc3)cc2)c(=O)c1C` displayed an XC50 of 0.385 µM.

For the molecule `COc1ccc(C(=O)Nc2ccc(-c3nc4cc(C)ccc4[nH]3)cc2)cc1OC`, the XC50 stood at 0.761 µM.

In turn, `CCc1ccc(C2CCN(CCCCNC(=O)c3ccc(NC(=O)c4ccc(Cl)cc4)cc3)CC2)c(OCC(=O)OC)c1` showed an XC50 of 1.03 µM.

Turning to `O=C(Nc1ccncc1)Nc1ccc2c(c1)CCN(C1CCC1)CC2`, the XC50 worked out at 1.13 µM.

Take `COc1cccc(C2=CC(C)(C)Oc3cc(OCCN(C)C)ccc32)c1`: the XC50 came to 0.794 µM.

With `CC(NCCC1CCC(NC(=O)N[C@H](C)C(O)(c2ccccc2)c2ccccc2)CC1)c1cccc2ccccc12` (stereo partly specified), the XC50 came out at 1.1 µM.

`CN1CCCC(CN2CCN(Cc3cccc(-c4ccc(-c5nc6cc(F)ccc6[nH]5)cc4)c3)CC2)C1` (stereo unspecified): the XC50 came to 0.139 µM.

Consider `Cc1ccc2ccccc2c1CCCON1C(=N)N=C(N)NC1(C)C`, for which the XC50 turned out to be 0.0032 µM.

Molecule `Clc1ccc(Nc2nc(-c3ccccn3)cs2)nc1` displayed an XC50 of 0.774 µM.

Molecule `COc1cc(Cc2cnc(N)nc2N)cc(OCCCOc2ccccc2)c1OC` registered an XC50 of 1.08 µM.

In turn, `Cc1cccc(NC(=O)Nc2cccc(-c3ccc(-c4nc5cc(C(F)(F)F)ccc5[nH]4)cc3)c2)c1` gave an XC50 of 0.905 µM.

`O=C(/C=C/c1ccc(Cl)c(Cl)c1)NCCCCCN1CCCN(C(=O)Nc2ccc(Br)cc2)CC1` registered an XC50 of 0.777 µM.

As for `OC(c1cccc2ccccc12)C1CN(CCc2ccccc2)CCC1(O)c1ccccc1` (stereo unspecified), the XC50 was determined as 0.145 µM.

In the case of `COC(=O)c1ccc(CCCNCC(O)c2cccc(C(F)(F)F)c2)cc1` (stereo unspecified), the XC50 is 0.803 µM.

`Cc1c[nH]c2ccc(/C=C/C(=O)NC3CCC(CCN4CCc5ccc(C#N)cc5CC4)CC3)cc12` (stereo unspecified) came in with an XC50 of 0.828 µM.

Molecule `CC(=O)Nc1ccc2[nH]cc(C3CCN(CC4CCC(NC(=O)/C=C/c5ccccc5Cl)CC4)CC3)c2n1` (stereo unspecified) showed an XC50 of 0.364 µM.

The molecule `Cc1c(F)cc(C(=O)NC2CC2)cc1-c1ccc2c(c1)c(C)nn2S(=O)(=O)c1cccs1` displayed an XC50 of 0.942 µM.

`O=C(N[C@@H](Cc1ccccc1)C(=O)NCCN1CCCCC1)c1ccc(O)c(-c2cccc(C(F)(F)F)c2)c1` returned an XC50 of 0.85 µM.

`CC(C)C[C@H](NC(=O)OC(C)(C)C)C(=O)Nc1ccc(Cc2ccc(NC(=O)[C@H](CC(C)C)NC(=O)OC(C)(C)C)cc2)cc1` showed an XC50 of 0.761 µM.

Regarding `CNc1nc(Nc2ccccc2C)nc2ccccc12`, the XC50 is 0.443 µM.

The molecule `COc1ccc(N(c2nc(-c3cc(Cl)ccc3Cl)cs2)C2CCNCC2)cc1` came in with an XC50 of 1.09 µM.

`CCCc1cccc(OC)c1OCCCON1C(N)=NC(N)=NC1(C)C` came in with an XC50 of 0.0032 µM.

Take `CS(=O)(=O)CCNc1cc(N2CCc3ncnc(Nc4ccc(OCc5cccc(F)c5)c(Cl)c4)c3C2)ncn1`: the XC50 turned out to be 0.873 µM.

As for `Cc1cc(-c2cc3nc4c(c(O)n3n2)CCCC4)c(C)o1`, the XC50 came to 0.821 µM.

The molecule `CC(C)(C)c1cc(NC(=O)c2ccc(Cl)c([N+](=O)[O-])c2)cc(C(C)(C)C)c1` came in with an XC50 of 1.03 µM.

In turn, `CC(C)(C)c1ccc(NC(=O)c2cccc(CN3CCCN(Cc4ccsc4)CC3)c2)cc1` returned an XC50 of 0.76 µM.

In turn, `O=C(Nc1ccc(-c2ccc(-c3nc4ccccc4[nH]3)cc2)cc1)Nc1ccc(Cl)c(Cl)c1` registered an XC50 of 0.0988 µM.

In turn, `Cc1ccc(-n2c(C)nc3c(Nc4ccc(-c5ccncc5)cc4)ncnc32)c(C)c1` came in with an XC50 of 0.101 µM.

As to `CN1CCC(NCc2cccc(-c3cnc(NCc4ccccc4)nc3)c2)CC1`, the XC50 amounted to 0.965 µM.

In the case of `CCn1c(SCc2ccccc2)nc2c1c(=O)[nH]c(=O)n2C`, the XC50 came to 0.241 µM.

`CC(C)CNCc1cccc(-c2ccc(CNc3ccc(C(=O)c4ccccc4)cc3)cc2)c1` registered an XC50 of 0.76 µM.

Take `COC(=O)c1ccc(N2CCN(CCCCNC(=O)c3ccc(NC(=O)c4ccc(Cl)cc4)cc3)CC2)c(OC)c1`: the XC50 stood at 1.3 µM.

Take `CCOCCCNc1nc2cc(OC)c(OC)cc2c2nc(-c3ccccc3)nn12`: the XC50 came out at 0.209 µM.

Consider `COc1cc2nccc(Nc3ccc4c(cnn4Cc4ccccc4F)c3)c2cc1OC`, for which the XC50 came out at 0.4 µM.

Molecule `Fc1ccc(C=NN=c2cc[nH]c3ccccc23)cc1` showed an XC50 of 0.706 µM.

Regarding `COc1cccc(C=CC(=O)NC2CCC(CN3CCC(c4c[nH]c5ccccc45)CC3)CC2)c1OC` (stereo unspecified), the XC50 was found to be 0.74 µM.

For the molecule `CN1CCC[C@H]1COc1ccc(CN2CC[C@H](NC(=O)c3ccc(Cl)c(Cl)c3)C2)cc1Br`, the XC50 came to 0.983 µM.

On to `Cc1cccc2nc(-c3ccc(-c4cccc(CN5CCC(CO)CC5)c4)s3)[nH]c12`, for which the XC50 is 0.935 µM.

Molecule `CCCCCN1C(=O)N(c2ccc(Cl)c(Cl)c2)C(N(O)C(=O)Nc2ccc(Cl)c(Cl)c2)C1(C)C` (stereo unspecified) registered an XC50 of 0.545 µM.

Regarding `Oc1cccc(-c2nc3cc(C4=NC5CCCCC5N4)ccc3[nH]2)c1` (stereo unspecified), the XC50 amounted to 0.592 µM.

With `COc1cc2c(C3CCN(CC4CCC(NC(=O)/C=C/c5ccc(Cl)c(Cl)c5)CC4)CC3)c[nH]c2cn1` (stereo unspecified), the XC50 was determined as 0.423 µM.

For the molecule `Cc1ccc(O)cc1Nc1ccnc2cc(-c3csc(CNCCN4CCOCC4)n3)ccc12`, the XC50 amounted to 0.884 µM.
